# Patent US5880106A, “Oral dosing formulations of dideoxy purine nucleosides” (Bristol-Myers Squibb Company, priority 1997, dated 1999)
# Read-outs that look alike come from different tables or passages of the source.
# What was measured:
# [1] = Solution stability of didanosine as a function of pH (stomach degradation model, Acid Neutralization Rate Test); assay type: physicochemical; details: water with hcl; pH 5, 37° C., 1/2 hour
# [2] = 37° C., cited from earlier work
smiles,measurement,setting,value
"OC[C@@H]1CC[C@H](n2cnc3c(O)ncnc32)O1 [Didanosine, 2',3'-Dideoxyinosine]",degraded at 0.5 h,[1],< 4%
same,t90,[2]; pH 7.4,16 days
same,t90,[2]; pH 9.5,509 days
same,t90,[2]; pH <3,< 0.0014 days
